Assay results published in patent US20090088412A1, “COMPOSITION FOR TREATING CANCER CELLS AND PREPARATION METHOD THEREOF” (KAOHSIUNG MEDICAL UNIVERSITY, priority 2007, published 2009).
In brackets after ≈: the same amount, converted by molar mass.

Experiments:
Hep G2 = experiment: MTT cytotoxicity test, Hep G2; type: cell-based, human; details: 72 hours; for IC50 Hep G2: liver cancer cell line
Method: (§1) The bioactivities of the 25 new withanolide compounds of the present invention are further studied. The bioactivities are measured by examining cytotoxicity tests with 5 human cancer cell lines, including MCF-7 and MDA-MB-231 (which are the breast cancer cell lines), Hep G2 and Hep 3B (which are the liver cancer cell line), and A549 (which is lung cancer cell line). In addition, a normal human lung cell line (MRC-5) is served as the control group. All human cancer cell lines come from the American Type Culture Collection. The respective cell lines are cultured in RPMI-1640 medium with 10% (v/v) fetal calf serum, 100 U/ml penicillin and 100 µg/ml streptomycin, and incubated at 37° C. in 5% CO2 atmosphere.
(§2) In the present invention, the cytotoxicity tests are performed with MTT (3-(4,5-dimethyl-thiazol-2-yl)-2,5-diphenyl tetrazolium bromide) method. The five cancer cell lines and the normal cell line (MRC-5) are firstly incubated in a 96-well culture dish with concentrations of 5,000˜10,000 cells/well. In Day 2, the respective incubated cells are added with the withanolide compounds of the present invention and Doxorubicin and are incubated for additional 72 hours. Afterwards, the incubated cells are examined with the MTT method including steps of dissolving the incubated cells in DMSO, and determining the absorbance of each cell line to each compound by a microplate reader in 550 nm to evaluate the cytotoxicity of each compound to each cell line. […] The IC50 represents the concentration of the compound that is required for 50% inhibition of the cell growth, and Doxorubicin serves as the positive control group.

Hep 3B = experiment: MTT cytotoxicity test, Hep 3B; type: cell-based, human; details: liver cancer cell line, 72 hours
Method: as §1, §2

MCF-7 = experiment: MTT cytotoxicity test, MCF-7; type: cell-based, human; details: 72 hours; for IC50 MCF-7: breast cancer cell line
Method: as §1, §2

A-549 = experiment: MTT cytotoxicity test, A-549; type: cell-based, human; details: 72 hours; for IC50 A-549: lung cancer cell line
Method: as §1, §2

MDA-MB-231 = experiment: MTT cytotoxicity test, MDA-MB-231; type: cell-based, human; details: 72 hours; for IC50 MDA-MB-231: breast cancer cell line
Method: as §1, §2

MRC-5 = experiment: MTT cytotoxicity test, normal lung cell line MRC-5; type: cell-based; details: 72 hours; for IC50 MRC-5: normal human lung cell line
Method: as §1, §2

Compound	IC50 Hep G2 (Hep G2)	IC50 Hep 3B (Hep 3B)	IC50 MCF-7 (MCF-7)	IC50 A-549 (A-549)	IC50 MDA-MB-231 (MDA-MB-231)	IC50 MRC-5 (MRC-5)	IC50 (Hep G2; Homo sapiens, HepG2, liver cancer cell line)	IC50 (Hep 3B; Homo sapiens, Hep3B)	IC50 (MCF-7; Homo sapiens, MCF7, breast cancer cell line)	IC50 (A-549; Homo sapiens, A549, lung cancer cell line)	IC50 (MDA-MB-231; Homo sapiens, MDA-MB-231, breast cancer cell line)	IC50 (MRC-5; MRC5, normal human lung cell line)
COC1CC(=O)[C@]2(C)[C@H]3CC[C@]4(C)C([C@@](C)(O)[C@H]5CC(C)=C(C)C(=O)O5)=CC[C@H]4[C@@H]3C[C@H]3O[C@]32[C@H]1O (stereo partly drawn) [Compound 18, Tubocapsanolide H]	3.67 µg/mL (≈ 7.33 µM)	2.65 µg/mL (≈ 5.29 µM)	9.27 µg/mL (≈ 18.5 µM)	7.50 µg/mL (≈ 15 µM)	4.82 µg/mL (≈ 9.63 µM)	15.23 µg/mL (≈ 30.4 µM)	–	–	–	–	–	–
C[C@@]12CC([C@@]3(O)CC[C@H]4[C@@H]5C[C@H]6O[C@]67[C@@H](O)C=CC(=O)[C@]7(C)[C@H]5CC[C@@]43C)[C@@H](C1)OC(=O)[C@]2(C)O (stereo partly drawn) [Compound 19, Anomanolide A]	3.11 µg/mL (≈ 6.39 µM)	3.63 µg/mL (≈ 7.46 µM)	2.31 µg/mL (≈ 4.75 µM)	1.01 µg/mL (≈ 2.08 µM)	1.37 µg/mL (≈ 2.82 µM)	1.91 µg/mL (≈ 3.93 µM)	–	–	–	–	–	–
C[C@@]12CC([C@@]3(O)CC[C@H]4[C@@H]5C[C@H](O)[C@]6(O)[C@@H](O)C=CC(=O)[C@]6(C)[C@H]5CC[C@@]43C)[C@@H](C1)OC(=O)[C@]2(C)O (stereo partly drawn) [Compound 20, Anomanolide B]	0.97 µg/mL (≈ 1.92 µM)	3.17 µg/mL (≈ 6.28 µM)	4.84 µg/mL (≈ 9.59 µM)	1.49 µg/mL (≈ 2.95 µM)	0.70 µg/mL (≈ 1.39 µM)	0.20 µg/mL (≈ 0.396 µM)	–	–	–	–	–	–
COc1cccc2c1C(=O)c1c(O)c3c(c(O)c1C2=O)C[C@@](O)(C(=O)CO)C[C@@H]3O[C@H]1C[C@H](N)[C@H](O)[C@H](C)O1 [doxorubicin, reference compound]	–	–	–	–	–	–	0.46 µg/mL (≈ 0.846 µM)	0.45 µg/mL (≈ 0.828 µM)	0.34 µg/mL (≈ 0.626 µM)	0.42 µg/mL (≈ 0.773 µM)	0.19 µg/mL (≈ 0.35 µM)	0.77 µg/mL (≈ 1.42 µM)
CC1=C(CO)C(=O)O[C@@H]([C@@H](C)[C@H]2CC[C@H]3[C@@H]4C[C@H]5O[C@]56[C@@H](O)C=CC(=O)[C@]6(C)[C@H]4CC[C@]23C)C1 [withaferin A, reference compound]	0.06 µg/mL (≈ 0.127 µM)	0.06 µg/mL (≈ 0.127 µM)	0.05 µg/mL (≈ 0.106 µM)	0.02 µg/mL (≈ 0.0425 µM)	0.02 µg/mL (≈ 0.0425 µM)	0.07 µg/mL (≈ 0.149 µM)	–	–	–	–	–	–
Tubocapsenolide D [Compound 4]	4.57 µg/mL	2.30 µg/mL	6.77 µg/mL	4.24 µg/mL	6.55 µg/mL	4.24 µg/mL	–	–	–	–	–	–
